Laboratory results: US20050031597A1, “Cells and improved method for preserving cells” (priority 2003, published 2005)

What was measured:
platelets = test: Stability of platelets during incubation (microscopy, flow cytometric analysis); type: cell-based, human
Protocol: The stability of the platelets during a 4 hours incubation period was studied using microscopy and flow cytometric analysis. […] No signs of microvesicle formation could be observed after 4 hours incubation, as can be judged by the stable relative proportion of microvesicle gated cells (less than 3%). The formation of microvesicles is usually considered as the first sign of platelet activation (Owners et al., Trans. Med. Rev., 8, 27-44, 1994). Characteristic antigens of platelet activation include: glycoprotein 53 (gp53, a lysosomal membrane marker), PECAM-1 (platelet endothelial cell adhesion molecule-1, an alpha granule constituent), and P-selection (an alpha granule membrane protein).

erythrocytic cells [1] = test: ATP level of erythrocytic cells; type: cell-based
Excerpt: (§1) Levels of ATP and DPG may be measured or assayed in biological samples (e.g., in cells) by any suitable means or procedure. By way of example only, levels of ATP and DPG may be measured or assayed in biological samples (e.g., in cells) by using Sigma Diagnostic (Sigma Aldrich Chemicals, St. Louis, Mo.) assay kits (cat. # for ATP assay 366 and 366-A, and for 2,3-DPG assay 35-A) designed for determination of ATP and 2,3-DPG in biological samples (e.g., red blood cells). By further way of example only, biological samples (e.g., cells) may be lysed using 12% and 8% trichloracetic acid for ATP and 2,3-DPG determination, respectively. ATP may be quantified enzymatically by catalyzing ATP to ADP in the presence of 3-phosphoglycerate (3-PGA) using phosphoglycerate phosphokinase (PGK) and the resulting 1,3-diphosphoglycerate induced oxidation of NADH to NAD using glyceraldehyde phosphate dehydrogenase (GAPD) present in the assay media. The level of NADH may be monitored spectrophotometrically at 340 nm which corresponds directly with the ATP level. 2,3-DPG may be hydrolyzed by 2,3-DPG phosphatase to 3-PGA and inorganic phosphorus in the presence of 2-phosphoglycolic acid as a stimulator. 3-PGA reacts with ATP in the presence of PGK and the subsequent steps follow the above protocol used for ATP quantification. […]

erythrocytic cells [2] = test: Mean corpuscular hemoglobin of trehalose-loaded, freeze-dried and rehydrated erythrocytic cells; type: cell-based
Protocol: The cells had been loaded in media with different trehalose concentration (400 mM trehalose, 500 mM trehalose, 600 mM trehalose, 700 mM trehalose and 800 mm trehalose) in 100 mOsm PBS pH 7.2. The cells were freeze-dried in 300 mM trehalose in 100 mOsm PBS, 15% HES and 2.54% HSA and rehydrated in a buffer containing 188 mM trehalose, 15% HES and 2.5% HSA.

human platelets = test: Loading of platelets with trehalose (anthrone reaction); type: cell-based; conditions: for trehalose uptake: 37° C.; for loading efficiency of trehalose: 4 hour incubation, 50 mM external trehalose
Protocol: Washing of Platelets. Platelet concentrations were obtained from the Sacramento blood center or from volunteers in our laboratory. Platelet rich plasma was centrifuged for 8 minutes at 320×g to remove erythrocytes and leukocytes. The supernatant was pelleted and washed two times (480×g for 22 minutes, 480×g for 15 minutes) in buffer A (100 MM NaCl, 10 MM KCl, 10 mM EGTA, 10 mM imidazole, pH 6.8). Platelet counts were obtained on a Coulter counter T890 (Coulter, Inc., Miami, Fla.).
Loading of Platelets with Trehalose. Washed platelets in a concentration of 1-2 10^9 platelets/ml were incubated at various temperatures in the presence of 1-20 mg/ml trehalose. Incubation temperatures were chosen from 4° C. to 37° C. Incubation times were varied from 0.5 to 4 hours. After incubation the platelet solutions were washed in buffer A two times (by centrifugation at 14,000 RPM for 20 s in a table centrifuge). Platelet counts were obtained on a coulter counter. Platelets were pelleted (45 S at 14,000 RPM) and sugars were extracted from the pellet using 80% methanol. The samples were heated for 30 minutes at 80° C. The methanol was 10 evaporated with nitrogen, and the samples were kept dry and redissolved in H2O prior to analysis. The amount of trehalose in the platelets was quantified using the anthrone reaction (Umbreit et al., Mamometric and Biochemical Techniques, 5th Edition, 1972). Samples were redissolved in 3 ml H2O and 6 ml anthrone reagents (2 g anthrone dissolved in 10M sulfuric acid). After vortex mixing, the samples were placed in a boiling water bath for 3 minutes. Then the samples were cooled on ice and the absorbance was measured at 620 nm on a Perkin Elmer spectrophotometer. The amount of platelet associated trehalose was determined using a standard curve of trehalose.
Quantification of Trehalose and LYCH Concentration. Uptake was calculated for each sample as micrograms of trehalose or LYCH per platelet. The internal trehalose concentration was calculated assuming a platelet radius of 1.2 μm and by assuming that 50% of the platelet volume is taken up by the cytosol (rest is membranes). The loading efficiency was determined from the cytosolic trehalose or LYCH concentration and the concentration in the loading buffer.

erythrocytic cells [3] = test: Percent hemolysis of erythrocytic cells during loading or incubation; type: cell-based; conditions: 800 mM trehalose, 100 mOsm ADSOL, 6.6 mM Na-phosphate; 38-41° C., 6 hours
erythrocytic cells [4] = test: 2,3-DPG level of erythrocytic cells; type: cell-based
Excerpt: as §1

OC[C@H]1O[C@H](O[C@H]2O[C@H](CO)[C@@H](O)[C@H](O)[C@H]2O)[C@H](O)[C@@H](O)[C@@H]1O [trehalose]
platelet morphology (platelets; 4 hours incubation at 37° C., 25 mM external trehalose): No morphological changes
platelet morphology (platelets; 4 hours incubation in 75 mM trehalose): swollen
relative proportion of microvesicle gated cells (platelets; after 4 hours incubation): less than 3%
level of ATP (erythrocytic cells [1]; 37° C., during 16 hours of incubation): does not decrease
level of ATP (erythrocytic cells [1]; trehalose solute solution, about 37° C., about 0 to about 7 hours, increases from about 4.0): about 4.5 μmol/gHb
mean corpuscular hemoglobin in rehydrated cells (erythrocytic cells [2]; cells loaded in 400 mM trehalose): about 7 pg
mean corpuscular hemoglobin in rehydrated cells (erythrocytic cells [2]; cells loaded in 800 mM trehalose): about 14 pg
MCH (erythrocytic cells [2]; intracellular trehalose about 40 mM to about 42 mM): about 9 pg
MCH (erythrocytic cells [2]; intracellular trehalose about 60 mM): greater than 14 pg
trehalose uptake (human platelets; after 2 hours, rapid linear uptake): 3.3×10^−10 mol/m^2s
trehalose uptake (human platelets; from 0 to 2 hours): 2.8×10^−11 mol/m^2s
loading efficiency of trehalose (human platelets; 22° C. and below): below 5%
loading efficiency of trehalose (human platelets; 37° C. (FIG. 1)): 35%
loading efficiency (human platelets; time course at 37° C., incubation period of 4 hours (FIG. 2)): 61%
extent of hemolysis during loading (erythrocytic cells [3]): about 17%
level of 2,3-DPG (erythrocytic cells [4]; 37° C., first 7 hours of incubation): high
level of 2,3-DPG (erythrocytic cells [4]; 7 hours incubation at about 37° C. in a trehalose containing solution): about 8.5 μmol/gHb
